According to PubChem BioAssay (NCI):
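In this assay, cells in 96-well plates receive the compound at five concentrations for 48 hours. Endpoints are linearly interpolated between the surrounding concentrations. Definition used: TGI = concentration required for complete inhibition of growth.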

Legend:
Assay in all cases: DTP human tumour cell line panel, 48 h
[1] = test system: OVCAR-3 ovarian
[2] = test system: T-47D breast
[3] = test system: SN12C renal
[4] = test system: RPMI-8226 leukemia
[5] = test system: HT29 colon
[6] = test system: SK-MEL-28 melanoma
[7] = test system: RXF 393 renal
[8] = test system: SF-539 CNS
[9] = test system: DU-145 prostate
[10] = test system: BT-549 breast
[11] = test system: SF-268 CNS
[12] = test system: SF-295 CNS
[13] = test system: K-562 leukemia
[14] = test system: SNB-19 CNS
[15] = test system: OVCAR-8 ovarian
[16] = test system: UACC-257 melanoma
[17] = test system: U251 CNS
[18] = test system: KM12 colon
[19] = test system: SW-620 colon
[20] = test system: MALME-3M melanoma

SMILES | TGI [1] | TGI [2] | TGI [3] | TGI [4] | TGI [5] | TGI [6] | TGI [7] | TGI [8] | TGI [9] | TGI [10] | TGI [11] | TGI [12] | TGI [13] | TGI [14] | TGI [15] | TGI [16] | TGI [17] | TGI [18] | TGI [19] | TGI [20]
CC[C@H](CCCC[C@H]1CC[C@@H]2CC(=O)C[C@H]12)OC | > 100 µM | > 100 µM | > 100 µM | > 100 µM | > 100 µM | > 100 µM | > 100 µM | > 100 µM | > 100 µM | > 100 µM | > 100 µM | > 100 µM | 55.2 µM | > 100 µM | > 100 µM | > 100 µM | > 100 µM | > 100 µM | > 100 µM | > 100 µM
CC1(C)C2C=C(CCN3CCOCC3)CC1C2 (centres undefined) | > 100 µM | > 100 µM | > 100 µM | > 100 µM | > 100 µM | > 100 µM | > 100 µM | > 100 µM | > 100 µM | > 100 µM | > 100 µM | > 100 µM | > 100 µM | > 100 µM | > 100 µM | > 100 µM | > 100 µM | > 100 µM | > 100 µM | > 100 µM
Cc1ccc(S(=O)(=O)N2CCC(=O)c3cc(Br)ccc32)cc1 | 61 µM | > 100 µM | > 100 µM | 76.4 µM | > 100 µM | > 100 µM | 53.6 µM | 25.3 µM | > 100 µM | > 88.9 µM | > 94.8 µM | 55.7 µM | > 30.9 µM | 99.4 µM | > 100 µM | 46.6 µM | > 35 µM | > 26.1 µM | > 100 µM | > 100 µM
CC(=O)OCCCC(NC(=O)OC(C)(C)C)C(=O)NC(CCCOC(C)=O)C(=O)NC(Cc1ccc([N+](=O)[O-])cc1)C(=O)NCC(=O)OCc1ccccc1 (centres undefined) | 30.1 µM | 33.5 µM | 31.6 µM | 44.6 µM | 31.9 µM | 31.9 µM | 31.1 µM | 28.9 µM | 32.7 µM | 32.6 µM | 35.6 µM | 24.4 µM | 96 µM | 32.9 µM | 31 µM | 28.6 µM | 32.8 µM | 29 µM | 31.1 µM | 34.4 µM
CC(=O)OCC1=C(C(=O)O)N2C(=O)C(NC(=O)CSc3ccncc3)C2SC1 (centres undefined) | > 100 µM | > 100 µM | > 100 µM | > 100 µM | > 100 µM | > 100 µM | > 100 µM | > 100 µM | > 100 µM | > 100 µM | > 100 µM | > 100 µM | > 100 µM | > 100 µM | > 100 µM | > 100 µM | > 100 µM | > 100 µM | > 100 µM | > 100 µM
c1cncc(C2(c3cc4ccccc4[nH]3)COCO2)c1 (centres undefined) | > 100 µM | > 100 µM | – | > 100 µM | > 100 µM | > 100 µM | > 100 µM | > 100 µM | > 100 µM | > 100 µM | > 100 µM | > 100 µM | > 100 µM | > 100 µM | > 100 µM | > 100 µM | > 100 µM | > 100 µM | > 100 µM | > 100 µM
O=c1c2ccccc2nc(-c2cc3c(cc2Cl)Sc2nccn2S3(=O)=O)n1-c1ccccc1 | 29.4 µM | 23.8 µM | > 100 µM | 48.5 µM | > 100 µM | 41.8 µM | 36 µM | 40.5 µM | 51.8 µM | > 100 µM | 22.2 µM | 52.9 µM | > 100 µM | > 100 µM | 44 µM | 34.2 µM | 30.5 µM | 24.7 µM | 47.5 µM | > 100 µM
O=[N+]([O-])c1c(F)c(F)c2c(c1F)Nc1ccccc1S2 | 4.1 µM | 12.1 µM | 12.8 µM | 27.2 µM | 3.63 µM | 5.74 µM | 8.88 µM | 39.6 µM | 13.3 µM | 25.8 µM | 6 µM | 34.2 µM | > 100 µM | 19.2 µM | 3.89 µM | 19.8 µM | 3.9 µM | 15.5 µM | 6.28 µM | 18.5 µM
COc1ccc(OC)c(-c2nc3n(c2/C=C2/C(=O)Nc4ccccc42)CCS3)c1 | > 100 µM | > 100 µM | > 100 µM | > 100 µM | > 100 µM | > 100 µM | 81.3 µM | > 100 µM | > 100 µM | > 100 µM | > 100 µM | > 100 µM | > 100 µM | > 100 µM | > 100 µM | > 100 µM | > 100 µM | > 100 µM | > 100 µM | > 100 µM
O=C1NCC(CSc2nc3cc(C4CCCc5c4[nH]c4ccccc54)ccc3o2)N1 (centres undefined) | > 100 µM | > 100 µM | > 100 µM | > 100 µM | > 100 µM | > 100 µM | > 100 µM | > 100 µM | > 100 µM | > 100 µM | > 100 µM | > 100 µM | > 100 µM | > 100 µM | 88.1 µM | > 100 µM | > 100 µM | > 100 µM | > 100 µM | > 100 µM
COc1ccc2nc3cc(Cl)ccc3c(NCCNC(=O)Cn3c(=O)n(C)c(=O)c4c3nc3c(c(=O)n(C)c(=O)n3C)[n+]4[O-])c2c1 | > 100 µM | > 100 µM | > 100 µM | > 100 µM | > 65.1 µM | > 31.6 µM | > 100 µM | > 65 µM | > 100 µM | 49.1 µM | 60.8 µM | > 100 µM | > 100 µM | > 77.9 µM | 57 µM | > 55.9 µM | 58.9 µM | > 100 µM | > 71.7 µM | > 100 µM
